Experimental data from publication PMC3160846 (PLoS ONE, 2011).

Tests used:
Aurora-A = molecular target: T1, Aurora-A (Homo sapiens, UniProt O14965); assay: In vitro kinase inhibition assay, Aurora-A; assay type: biochemical; details: recombinant GST-tagged Aurora-A, 37°C, 90 min
T1 construct: GST-tagged Aurora-A (residues S123-S401) containing kinase domain; GST; made in house; host or cells: Sf9 insect cells
Description: Aurora-A and Aurora-B kinase - The recombinant GST-tagged Aurora-A (residues S123-S401) containing kinase domain was expressed in Sf9 insect cells. The recombinant full length His-tagged Aurora-B (residues M1∼A344) was purchased from Invitrogen (PV3970). The kinase assay were carried out in 96-well plates with the tested compound at either 37°C (Aurora-A) for 90 min or 30°C (Aurora-B) for 120 min.
(§1) Composition of the reaction buffers used in different kinase inhibitory assays is described in Figure S3.
50 mM Tris-HCl pH 7.4, 10 mM NaCl, 10 mM MgCl2, 0.01% BSA, 5 mM ATP, 1 mM DTT and […] tetra(LRRASLG) peptide, and either 150 ng recombinant Aurora-A or 40 ng recombinant Aurora-B.

FLT3 = molecular target: T2, FLT3 (Homo sapiens, UniProt P36888); assay: Kinase-Glo inhibition assay, FLT3; assay type: biochemical
T2 construct: FLT3 kinase catalytic domain (residues Y567∼S993); made in house; host or cells: Sf9 insect cells
Description: FLT3 – GST-tagged FLT3-KDWT containing the FLT3 kinase catalytic domain (residues Y567∼S993) were expressed in Sf9 insect cells. The FLT3WT Kinase-Glo assays were carried out in 96-well plates at 30°C for 4 h with the tested compound.
as §1
75 ng GST-FLT3-KDWT proteins, 25 mM HEPES, pH 7.4, 4 mM MnCl2, 10 mM MgCl2, 2mM DTT, 0.02% Triton X-100, 0.1 mg/ml bovine serum albumin, 25 μM Her2 peptide substrate, 0.5 mM Na3VO4, and 1 μM ATP.

ALK = molecular target: T3, ALK (Homo sapiens, UniProt Q9UM73); assay: Kinase inhibition assay, ALK; assay type: biochemical
T3 construct: His-tagged ALK (residues V1058-P1620) containing kinase domain; His; made in house; host or cells: Sf9 insect cells
Description: ALK – The recombinant His-tagged ALK (residues V1058-P1620) containing kinase domain was expressed in Sf9 insect cells. The kinase assay was carried out in 96-well plates with the tested compound at 30°C for 120 min.
as §1
25 mM HEPES pH 7.4, 10 mM MgCl2, 4 mM MnCl2, 0.5 mM Na3VO4, 2 mM DTT, 0.02% Triton X100, 0.01% BSA, 1 μM ATP, 2 μM polyGlu4:Tyr peptide, 50~100 ng recombinant ALK.

VEGFR1 = molecular target: T4, VEGFR1 (Homo sapiens, UniProt P17948); assay: Kinase inhibition assay, VEGFR1; assay type: biochemical
T4 construct: GST-tagged VEGFR1 (residues R781-I1338); GST; made in house; host or cells: Sf9 insect cells
Description: VEGFR1/2 – The recombinant GST-tagged VEGFR1 (residues R781-I1338) or VEGFR2 (residues V789-V1356) containing kinase domain were expressed in Sf9 insect cells. The kinase assay was carried out in 96-well plates with the tested compound at 30°C for 120 min.
as §1
25 mM HEPES pH 7.4, 10 mM MgCl2, 4mM MnCl2, 0.5mM Na3VO4, 2 mM DTT, 0.02% Triton X100, 0.01% BSA, 1 mM ATP, 2 mM polyGlu4:Tyr peptide, 50~100 ng recombinant VEGFR1 or VEGFR2.

OECM-1 cells = assay: Clonogenic assay, OECM-1; assay type: cell-based, Human; details: Homo sapiens, OECM1; OECM-1, oral, p53 mutant, MDR1 negative; read-out: IC50, anti-proliferative activity
Description: Human lung adenocarcinoma A549 cells and NTUB1 bladder cancer cells were maintained in RPMI supplied with 10% fetal bovine serum. […] KB-derived MRP1-expressing cell line, KB-7D, was maintained in growth medium supplemented with 7 µM VP-16.
Two hundred cells in logarithmic growth phase were seeded in a 6-well plate. The cells were exposed to various concentrations of the test drugs for a three-generation period. At the end of the incubation period, cells were fixed and stained with 50% ethanol containing 0.5% methylene blue for 30 min. The plates were washed five times with water and allowed to air-dry. Colonies were countered manually. […] Each value represents the average of at least three independent experiments run in triplicates.

T2 sequence (P36888 567-993): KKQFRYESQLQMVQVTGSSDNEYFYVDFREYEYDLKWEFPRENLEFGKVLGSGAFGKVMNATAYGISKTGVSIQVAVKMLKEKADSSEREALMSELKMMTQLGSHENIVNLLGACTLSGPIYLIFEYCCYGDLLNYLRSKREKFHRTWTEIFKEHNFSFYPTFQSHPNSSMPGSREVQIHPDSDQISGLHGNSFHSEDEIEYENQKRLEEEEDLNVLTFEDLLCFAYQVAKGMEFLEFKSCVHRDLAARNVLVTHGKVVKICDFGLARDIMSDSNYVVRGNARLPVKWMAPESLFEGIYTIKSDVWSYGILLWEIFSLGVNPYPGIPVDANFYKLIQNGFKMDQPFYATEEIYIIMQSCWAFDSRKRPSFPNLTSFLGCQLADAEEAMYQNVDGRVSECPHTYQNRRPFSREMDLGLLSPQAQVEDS
T4 sequence (P17948 781-1338): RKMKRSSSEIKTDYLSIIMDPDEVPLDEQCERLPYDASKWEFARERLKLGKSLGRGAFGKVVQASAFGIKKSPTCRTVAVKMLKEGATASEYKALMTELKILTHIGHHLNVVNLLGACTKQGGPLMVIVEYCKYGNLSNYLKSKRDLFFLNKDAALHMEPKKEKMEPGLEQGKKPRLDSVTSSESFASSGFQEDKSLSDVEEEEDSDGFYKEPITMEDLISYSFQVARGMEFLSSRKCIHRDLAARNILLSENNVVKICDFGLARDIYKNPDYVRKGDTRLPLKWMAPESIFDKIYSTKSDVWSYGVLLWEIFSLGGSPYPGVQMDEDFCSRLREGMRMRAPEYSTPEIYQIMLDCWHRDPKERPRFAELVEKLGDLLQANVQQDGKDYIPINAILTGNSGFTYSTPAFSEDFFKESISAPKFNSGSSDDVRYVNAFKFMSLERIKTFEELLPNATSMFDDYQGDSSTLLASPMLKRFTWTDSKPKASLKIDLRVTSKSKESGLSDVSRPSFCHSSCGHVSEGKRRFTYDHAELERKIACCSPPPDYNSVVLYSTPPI
T1 sequence (O14965 123-401): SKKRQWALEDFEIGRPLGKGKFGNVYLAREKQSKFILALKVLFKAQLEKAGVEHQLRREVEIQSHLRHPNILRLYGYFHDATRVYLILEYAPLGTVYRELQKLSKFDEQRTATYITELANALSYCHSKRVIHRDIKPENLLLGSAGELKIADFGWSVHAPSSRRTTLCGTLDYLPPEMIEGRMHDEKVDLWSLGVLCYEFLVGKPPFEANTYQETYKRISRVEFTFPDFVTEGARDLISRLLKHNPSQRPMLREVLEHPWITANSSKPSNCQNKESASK
T3 sequence (Q9UM73 1058-1620): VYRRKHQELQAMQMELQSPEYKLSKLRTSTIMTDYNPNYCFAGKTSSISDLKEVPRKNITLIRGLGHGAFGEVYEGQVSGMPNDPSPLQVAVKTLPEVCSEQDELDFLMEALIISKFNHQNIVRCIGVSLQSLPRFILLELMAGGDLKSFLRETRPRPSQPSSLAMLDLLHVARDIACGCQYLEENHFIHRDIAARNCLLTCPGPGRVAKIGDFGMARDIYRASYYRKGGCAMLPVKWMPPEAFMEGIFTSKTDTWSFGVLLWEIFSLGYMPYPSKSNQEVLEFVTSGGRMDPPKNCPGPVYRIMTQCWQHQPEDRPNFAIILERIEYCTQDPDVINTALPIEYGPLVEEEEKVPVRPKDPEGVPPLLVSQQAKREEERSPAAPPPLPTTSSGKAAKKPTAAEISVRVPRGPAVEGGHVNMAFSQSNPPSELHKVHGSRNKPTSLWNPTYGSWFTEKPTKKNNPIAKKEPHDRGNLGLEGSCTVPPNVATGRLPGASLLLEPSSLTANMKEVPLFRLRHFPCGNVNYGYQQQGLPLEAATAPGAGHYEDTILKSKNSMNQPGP

- IC50 (Aurora-A): 0.124 µM
- IC50 (FLT3): > 10 µM
- IC50 (ALK): > 10 µM
- IC50 (VEGFR1): > 10 µM
SMILES: CN(C)Cc1ccccc1NC(=O)Nc1ccc(CCNc2ncnc3oc(-c4ccccc4)c(Cl)c23)cc1 [BPR1K653]
- IC50 (OECM-1 cells): 0.135 ± 0.01 µM
